Data reported in patent US10195178B2, “GPR40 agonists in anti-diabetic drug combinations” (Janssen Pharmaceutica NV, priority 2016, dated 2019).
“And” between values parts separate entries of the source, which are not always exact repeats. Identical values can stand only once.

Columns and labels:
SD rats = test: Oral Glucose Tolerance Test: Canagliflozin Combination with GPR40 Agonist; type: in vivo; conditions: SD rat OGTT; for Blood glucose 0 min / Blood glucose 30 min / Blood glucose 60 min / Blood glucose 120 min / Blood glucose AUC / Blood glucose AUC % of Vehicle: single oral dose 60 min before glucose 2 g/kg; for Blood glucose AUC / Blood glucose AUC % of Vehicle: AUC 0-120 min
Procedure: We have evaluated the blood glucose (BG) lowering effect of canagliflozin (Cana) combined with a GPR40 agonist Cpd 2 in SD rat studies. Overnight fasted SD rats received either a single treatment of Cana or Cpd 2 or a combination of both. An oral glucose tolerance test (OGTT) was followed at 60 min post compound administration. […] The two-sided Z Test and Delta method were applied to statistically determine the treatment additivity of combinations using blood glucose AUC values. Results indicated the treatments were additive in the combinations of Canagliflozin at 1 or 3 mg/kg and Cpd 2 at 0.3 or 1 mg/kg.
• A. The formulation of Canagliflozin was prepared by directly adding the required amount of 0.5% HPMC to the compound and stirring overnight. • B. The formulation of Cpd 2 was prepared following steps listed below: • a. One equivalent (amount of compound/compound MW) of 1N NaOH was added to dry compound to enhance water solubility (due to compound itself is a carboxylic acid). • b. The required volume of 0.5% HPMC was then added; • c. The compound was vortexed and sonicated (without heat) for a minimum of 10 minutes. • d. The compound was then allowed to stir overnight. • C. For the formulation of combination of Canagliflozin (Cana) and Cpd 2: • a. First, a formulation of double concentrations of each compound was prepared.
• b. Right before dosing, the double-concentrated formulation of Cpd 2 was mixed with an equal volume of the double-concentrated formulation of Canagliflozin, such that each compound was as 1× concentration. • D. The dosing volume for all the experiments was 10 mL/kg Experimental Design
Male SD rats (225-245 g of body weight, purchased from Charles River) were used in this study. SD rats were housed 2 per cage in a temperature-controlled room with 12-hour light/dark cycle (6 am-6 pm lights on). They are allowed ad libitum access to water and fed with Purina 5K75 (LabDiet, St. Louis, Mo.).
SD rats were fasted overnight. In the morning of the next day, these rats were grouped into the following 12 groups based on their fasted blood glucose levels determined by a glucometer (LifeScan, New Brunswick, N.J.) and body weight.
At −60 minutes BG values were collected via tail bleeding. Next, rats were dosed orally with vehicle or compounds in vehicle. Then, at 0 minutes, rats were bled via tail vein to determine BG levels and dosed orally with glucose (2 g/kg; 50% glucose, 4 mL/kg). Blood samples were collected at 30, 60, and 120 minutes after oral glucose administration for BG determination.
Statistical analysis were performed using the program Prism (Graphpad, Monrovia, Calif.) with either a repeated measures 1-way ANOVA (glucose and insulin curves with Tukey's post-test) or a one-way ANOVA and Tukey's multiple comparison test (AUC, delta AUC and percent vehicle). All data are presented as the mean±standard error of the mean (SEM).
The two-sided Z Test and Delta method was applied to statistically determine the treatment additivity of combinations.

human GPR40 = human GPR40 (Homo sapiens (Human), UniProt O14842); test: GPR40 Calcium Flux Assay; type: cell-based; conditions: transfected HEK293 cells stably expressing human GPR40; mean data; read-out: hGPR40 Ca2+ Assay EC50
human GPR40, sequence (O14842 whole entry): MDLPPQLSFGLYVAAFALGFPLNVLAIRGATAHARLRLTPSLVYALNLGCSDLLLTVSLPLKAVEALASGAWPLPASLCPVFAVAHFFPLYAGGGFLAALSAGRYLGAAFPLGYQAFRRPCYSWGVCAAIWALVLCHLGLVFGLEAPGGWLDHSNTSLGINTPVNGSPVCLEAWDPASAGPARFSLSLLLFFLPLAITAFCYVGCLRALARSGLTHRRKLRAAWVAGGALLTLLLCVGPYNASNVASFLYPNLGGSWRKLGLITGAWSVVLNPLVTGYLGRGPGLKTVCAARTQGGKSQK
Procedure: Compounds were tested in a calcium flux assay using transfected HEK293 cells stably expressing either human GPR40 or rat GPR40. Human GPR40 expressing cells were cultured in DMEM-High Glucose media supplemented with 10% fetal bovine serum, 1×L-Glutamine, 1×Penicillin/Streptomycin and 500 μg/mL G418. Rat GPR40 expressing cells were cultured in DMEM-High Glucose media supplemented with 10% fetal bovine serum and 1 μg/mL puromycin. Cells were plated into poly-D-lysine coated 384-well plates and cultured overnight in a 37° C. humidified tissue culture incubator under 5% CO2/[…] atmosphere. On the day of the experiment, the culture media was replaced with assay buffer (HBSS, 20 mM HEPES, 0.1% BSA) and the cells incubated at 37° C. for 1 h. Calcium-sensitive fluorescent dye (Fluo 8 No-Wash Calcium Dye, ABD Bioquest) was then added and the cells incubated for another 30 min at 37° C. followed by 15 min at room temperature while protected from the light. The cell plate and a plate of diluted compounds of Formula (I) were loaded into a fluorescent plate reader that added compounds onto the cells while measuring the fluorescence intensity of each well. The plate reader recorded fluorescence intensity at 1 second intervals for 8 min and provided the data for analysis in an Excel format. EC50 values were calculated using Prism (GraphPad) software.

With `Cc1ccc([C@@H]2O[C@H](CO)[C@@H](O)[C@H](O)[C@H]2O)cc1Cc1ccc(-c2ccc(F)cc2)s1` [Cana, canagliflozin] the “Blood glucose lowering during OGTT (in words)” value (SD rats; 10 mg/kg) was “markedly lowering blood glucose”, the “Blood glucose 0 min” value (SD rats; 1 mpk) was 76.9 ± 2.3 mg/dL and the “Blood glucose 30 min” value (SD rats; 1 mpk) was 162.8 ± 6.5 mg/dL. The “Blood glucose 60 min” value (SD rats; 1 mpk) was 177.8 ± 4.0 mg/dL, the “Blood glucose 120 min” value (SD rats; 1 mpk) was 135.5 ± 8.2 mg/dL and the “Blood glucose AUC” value (SD rats; 1 mpk) was 18,099 ± 551 mg/dL/120 min. The “Blood glucose AUC % of Vehicle” value (SD rats; 1 mpk) was 95.4 ± 2.9%, the “Blood glucose 0 min” value (SD rats; 3 mpk) was 85.1 ± 3.0 mg/dL and the “Blood glucose 30 min” value (SD rats; 3 mpk) was 140.5 ± 5.1 mg/dL. For the same compound, the “Blood glucose 60 min” value (SD rats; 3 mpk) was 156.4 ± 4.0 mg/dL, the “Blood glucose 120 min” value (SD rats; 3 mpk) was 125.1 ± 9.7 mg/dL and the “Blood glucose AUC” value (SD rats; 3 mpk) was 16,204 ± 412 mg/dL/120 min. The “Blood glucose AUC % of Vehicle” value (SD rats; 3 mpk) was 85.4 ± 2.2%, the “Blood glucose 0 min” value (SD rats; 10 mpk) was 73.6 ± 4.4 mg/dL and the “Blood glucose 30 min” value (SD rats; 10 mpk) was 91.9 ± 6.4 mg/dL. For the same compound, the “Blood glucose 60 min” value (SD rats; 10 mpk) was 103.5 ± 5.4 mg/dL, the “Blood glucose 120 min” value (SD rats; 10 mpk) was 95.1 ± 3.7 mg/dL and the “Blood glucose AUC” value (SD rats; 10 mpk) was 11,400 ± 459 mg/dL/120 min. The “Blood glucose AUC % of Vehicle” value (SD rats; 10 mpk) was 60.1 ± 2.4%.

With `CC#C[C@@H](CC(=O)O)c1ccc(OCc2ccc3scc(-c4ccccc4C)c3c2)cc1` [Cpd 2, (3S)-3-[4-[[3-(2-Methylphenyl)benzo[b]thiophen-5-yl]methoxy]phenyl]hex-4-ynoic acid] the “Blood glucose 0 min” value (SD rats; 0.3 mpk) was 86.1 ± 4.2 mg/dL, the “Blood glucose 30 min” value (SD rats; 0.3 mpk) was 149.0 ± 4.3 mg/dL and the “Blood glucose 60 min” value (SD rats; 0.3 mpk) was 153.1 ± 4.2 mg/dL. The “Blood glucose 120 min” value (SD rats; 0.3 mpk) was 103.3 ± 4.0 mg/dL, the “Blood glucose AUC” value (SD rats; 0.3 mpk) was 15,750 ± 244 mg/dL/120 min and the “Blood glucose AUC % of Vehicle” value (SD rats; 0.3 mpk) was 83.0 ± 1.3%. For the same compound, the “Blood glucose 0 min” value (SD rats; 1 mpk) was 76.1 ± 5.0 mg/dL, the “Blood glucose 30 min” value (SD rats; 1 mpk) was 132.3 ± 6.4 mg/dL and the “Blood glucose 60 min” value (SD rats; 1 mpk) was 139.6 ± 7.3 mg/dL. The “Blood glucose 120 min” value (SD rats; 1 mpk) was 102.4 ± 4.8 mg/dL, the “Blood glucose AUC” value (SD rats; 1 mpk) was 14,464 ± 554 mg/dL/120 min and the “Blood glucose AUC % of Vehicle” value (SD rats; 1 mpk) was 76.2 ± 2.9%.

With `Cc1ccccc1-c1csc2ccc(COc3ccc([C@]4(CC(=O)O)C[C@@H](O)C4)cc3)cc12` [Cpd 31, 2-((1r,3r)-3-Hydroxy-1-(4-((3-(2-methylphenyl)benzo[b]thiophen-5-yl)methoxy)phenyl)cyclobutyl)acetic acid] the EC50 (human GPR40) was 48 nM.

With `CC#C[C@@H](CC(=O)O)c1ccc(OCc2ccc3scc(-c4ccc(OCCOC)cc4C)c3c2)nc1` [Cpd 77, (3R)-3-(6-((3-(4-(2-Methoxyethoxy)-2-methylphenyl)benzo[b]thiophen-5-yl)methoxy)pyridin-3-yl)hex-4-ynoic acid] the EC50 (human GPR40) was 16 nM and 6 nM and 5 nM.

`CC#CC(CC(=O)O)c1ccc(OCc2ccc3scc(-c4ccccc4C)c3c2)cc1` (stereo not shown) [Cpd 97, 3-(4-((3-(2-Methylphenyl)benzo[b]thiophen-5-yl)methoxy)phenyl)hex-4-ynoic acid] was tested, and the EC50 (human GPR40) was 4 nM.
